Test results reported in PubChem BioAssay (NCI).
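Assay format: 96-well plates, 48-hour exposure. Abbreviation: GI50, concentration required for 50% inhibition of growth. At the TGI there is no net growth.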

Key:
Test in all cases: DTP human tumour cell line panel, 48 h
HCT-15 colon = system: HCT-15 colon
RXF 393 renal = system: RXF 393 renal
DU-145 prostate = system: DU-145 prostate
SK-OV-3 ovarian = system: SK-OV-3 ovarian
COLO 205 colon = system: COLO 205 colon
HT29 colon = system: HT29 colon
NCI-H23 lung = system: NCI-H23 lung
SF-539 CNS = system: SF-539 CNS
MALME-3M melanoma = system: MALME-3M melanoma
KM12 colon = system: KM12 colon
HCT-116 colon = system: HCT-116 colon
OVCAR-3 ovarian = system: OVCAR-3 ovarian
MOLT-4 leukemia = system: MOLT-4 leukemia
A498 renal = system: A498 renal
HOP-92 NSCLC = system: HOP-92 NSCLC
SNB-19 CNS = system: SNB-19 CNS
ACHN renal = system: ACHN renal
MDA-MB-231 breast = system: MDA-MB-231 breast
SK-MEL-28 melanoma = system: SK-MEL-28 melanoma
SR leukemia = system: SR leukemia
M14 melanoma = system: M14 melanoma
NCI-H460 lung = system: NCI-H460 lung
HL-60(TB) leukemia = system: HL-60(TB) leukemia
RPMI-8226 leukemia = system: RPMI-8226 leukemia
NCI/ADR-RES ovarian = system: NCI/ADR-RES ovarian
SW-620 colon = system: SW-620 colon
PC-3 prostate = system: PC-3 prostate
SNB-75 CNS = system: SNB-75 CNS
HOP-62 NSCLC = system: HOP-62 NSCLC
LOX IMVI melanoma = system: LOX IMVI melanoma
TK-10 renal = system: TK-10 renal
UO-31 renal = system: UO-31 renal
U251 CNS = system: U251 CNS
786-0 renal = system: 786-0 renal
K-562 leukemia = system: K-562 leukemia
OVCAR-4 ovarian = system: OVCAR-4 ovarian
SF-295 CNS = system: SF-295 CNS
T-47D breast = system: T-47D breast
BT-549 breast = system: BT-549 breast
UACC-257 melanoma = system: UACC-257 melanoma
A549 NSCLC = system: A549 NSCLC
CAKI-1 renal = system: CAKI-1 renal
NCI-H226 lung = system: NCI-H226 lung
OVCAR-5 ovarian = system: OVCAR-5 ovarian
HCC-2998 colon = system: HCC-2998 colon
HS 578T breast = system: HS 578T breast
SF-268 CNS = system: SF-268 CNS
UACC-62 melanoma = system: UACC-62 melanoma
MCF7 breast = system: MCF7 breast
OVCAR-8 ovarian = system: OVCAR-8 ovarian
CCRF-CEM leukemia = system: CCRF-CEM leukemia
MDA-MB-435 = system: MDA-MB-435
NCI-H522 lung = system: NCI-H522 lung
SN12C renal = system: SN12C renal
SK-MEL-5 melanoma = system: SK-MEL-5 melanoma
SK-MEL-2 melanoma = system: SK-MEL-2 melanoma
IGROV1 ovarian = system: IGROV1 ovarian

Structure (SMILES): CC[C@H](C)C(=O)O[C@H]1C[C@H](O)C=C2C=C[C@H](C)[C@H](CC[C@@H](O)C[C@@H](O)CC(=O)O)[C@H]21
- GI50 (HCT-15 colon): > 100 µM
- TGI (HCT-15 colon): > 100 µM
- GI50 (RXF 393 renal): > 100 µM
- TGI (RXF 393 renal): > 100 µM
- GI50 (DU-145 prostate): > 100 µM
- TGI (DU-145 prostate): > 100 µM
- GI50 (SK-OV-3 ovarian): > 100 µM
- TGI (SK-OV-3 ovarian): > 100 µM
- GI50 (COLO 205 colon): > 100 µM
- TGI (COLO 205 colon): > 100 µM
- GI50 (HT29 colon): > 100 µM
- TGI (HT29 colon): > 100 µM
- GI50 (NCI-H23 lung): > 100 µM
- TGI (NCI-H23 lung): > 100 µM
- GI50 (SF-539 CNS): > 100 µM
- TGI (SF-539 CNS): > 100 µM
- GI50 (MALME-3M melanoma): > 100 µM
- TGI (MALME-3M melanoma): > 100 µM
- GI50 (KM12 colon): > 100 µM
- TGI (KM12 colon): > 100 µM
- GI50 (HCT-116 colon): > 100 µM
- TGI (HCT-116 colon): > 100 µM
- GI50 (OVCAR-3 ovarian): > 100 µM
- TGI (OVCAR-3 ovarian): > 100 µM
- GI50 (MOLT-4 leukemia): > 100 µM
- TGI (MOLT-4 leukemia): > 100 µM
- GI50 (A498 renal): 11.6 µM
- TGI (A498 renal): > 100 µM
- GI50 (HOP-92 NSCLC): 23 µM
- TGI (HOP-92 NSCLC): > 100 µM
- GI50 (SNB-19 CNS): > 100 µM
- TGI (SNB-19 CNS): > 100 µM
- GI50 (ACHN renal): > 100 µM
- TGI (ACHN renal): > 100 µM
- GI50 (MDA-MB-231 breast): > 100 µM
- TGI (MDA-MB-231 breast): > 100 µM
- GI50 (SK-MEL-28 melanoma): > 100 µM
- TGI (SK-MEL-28 melanoma): > 100 µM
- GI50 (SR leukemia): > 100 µM
- TGI (SR leukemia): > 100 µM
- GI50 (M14 melanoma): > 100 µM
- TGI (M14 melanoma): > 100 µM
- GI50 (NCI-H460 lung): > 100 µM
- TGI (NCI-H460 lung): > 100 µM
- GI50 (HL-60(TB) leukemia): > 100 µM
- TGI (HL-60(TB) leukemia): > 100 µM
- GI50 (RPMI-8226 leukemia): > 100 µM
- TGI (RPMI-8226 leukemia): > 100 µM
- GI50 (NCI/ADR-RES ovarian): > 100 µM
- TGI (NCI/ADR-RES ovarian): > 100 µM
- GI50 (SW-620 colon): > 100 µM
- TGI (SW-620 colon): > 100 µM
- GI50 (PC-3 prostate): > 100 µM
- TGI (PC-3 prostate): > 100 µM
- GI50 (SNB-75 CNS): > 100 µM
- TGI (SNB-75 CNS): > 100 µM
- GI50 (HOP-62 NSCLC): > 100 µM
- TGI (HOP-62 NSCLC): > 100 µM
- GI50 (LOX IMVI melanoma): > 100 µM
- TGI (LOX IMVI melanoma): > 100 µM
- GI50 (TK-10 renal): > 100 µM
- TGI (TK-10 renal): > 100 µM
- GI50 (UO-31 renal): > 100 µM
- TGI (UO-31 renal): > 100 µM
- GI50 (U251 CNS): > 100 µM
- TGI (U251 CNS): > 100 µM
- GI50 (786-0 renal): > 100 µM
- TGI (786-0 renal): > 100 µM
- GI50 (K-562 leukemia): > 100 µM
- TGI (K-562 leukemia): > 100 µM
- GI50 (OVCAR-4 ovarian): > 100 µM
- TGI (OVCAR-4 ovarian): > 100 µM
- GI50 (SF-295 CNS): > 100 µM
- TGI (SF-295 CNS): > 100 µM
- GI50 (T-47D breast): > 100 µM
- TGI (T-47D breast): > 100 µM
- GI50 (BT-549 breast): > 100 µM
- TGI (BT-549 breast): > 100 µM
- GI50 (UACC-257 melanoma): > 100 µM
- TGI (UACC-257 melanoma): > 100 µM
- GI50 (A549 NSCLC): > 100 µM
- TGI (A549 NSCLC): > 100 µM
- GI50 (CAKI-1 renal): > 100 µM
- TGI (CAKI-1 renal): > 100 µM
- GI50 (NCI-H226 lung): > 100 µM
- TGI (NCI-H226 lung): > 100 µM
- GI50 (OVCAR-5 ovarian): > 100 µM
- TGI (OVCAR-5 ovarian): > 100 µM
- GI50 (HCC-2998 colon): > 100 µM
- TGI (HCC-2998 colon): > 100 µM
- GI50 (HS 578T breast): > 100 µM
- TGI (HS 578T breast): > 100 µM
- GI50 (SF-268 CNS): > 100 µM
- TGI (SF-268 CNS): > 100 µM
- GI50 (UACC-62 melanoma): > 100 µM
- TGI (UACC-62 melanoma): > 100 µM
- GI50 (MCF7 breast): > 100 µM
- TGI (MCF7 breast): > 100 µM
- GI50 (OVCAR-8 ovarian): > 100 µM
- TGI (OVCAR-8 ovarian): > 100 µM
- GI50 (CCRF-CEM leukemia): > 100 µM
- TGI (CCRF-CEM leukemia): > 100 µM
- GI50 (MDA-MB-435): > 100 µM
- TGI (MDA-MB-435): > 100 µM
- GI50 (NCI-H522 lung): 63 µM
- TGI (NCI-H522 lung): > 100 µM
- GI50 (SN12C renal): > 100 µM
- TGI (SN12C renal): > 100 µM
- GI50 (SK-MEL-5 melanoma): > 100 µM
- TGI (SK-MEL-5 melanoma): > 100 µM
- GI50 (SK-MEL-2 melanoma): > 100 µM
- TGI (SK-MEL-2 melanoma): > 100 µM
- GI50 (IGROV1 ovarian): > 100 µM
- TGI (IGROV1 ovarian): > 100 µM
